Results from PMC10584170, “Machine learning-based phenotypic imaging to characterise the targetable biology of Plasmodium falciparum male gametocytes for the development of transmission-blocking antimalarials” (PLOS Pathogens, 2023).

Tests used:
[1] = tested on: P. falciparum male gametocytes; assay: P. falciparum Dual Gamete Formation Assay (PfDGFA), male readout (exflagellation); assay type: cell-based, Plasmodium falciparum NF54; details: for Average inhibition male (%): average of replicates; for % inhibition male (individual replicates) R1: replicate R1; for % inhibition male (individual replicates) R3: replicate R3; for % inhibition male (individual replicates) R4: replicate R4; for Activity: hit = >50% inhibition in male or female readout in at least 3 replicates, 0 = no class assigned
Outline: (§1)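 Male and female gamete formation were quantified by microscopy image analysis following 24 h incubation of mature NF54 gametocytes with compound and activation at 28°C with xanthurenic acid.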

[2] = tested on: P. falciparum female gametocytes; assay: P. falciparum Dual Gamete Formation Assay (PfDGFA), female readout (Pfs25-positive female gametes); assay type: cell-based, Plasmodium falciparum NF54; details: for Average inhibition female (%): average of replicates; for % inhibition female (individual replicates) R1: replicate R1; for % inhibition female (individual replicates) R3: replicate R3; for % inhibition female (individual replicates) R4: replicate R4
Outline: as §1

[3] = 2µM, 24h preincubation with gametocytes prior to induction of gametogenesis
[4] = 2µM, 24h preincubation, number of replicates with >50% inhibition in the male readout
[5] = 2µM, 24h preincubation, number of replicates with >50% inhibition in the female readout
[6] = 2µM, 24h preincubation, hits selected on >50% inhibition in the male readout across replicates
[7] = PfDGFA at 2µM, 24h preincubation
[8] = 2µM, 24h preincubation, hits selected on >50% inhibition in the female readout across replicates
[9] = PfDGFA at 2µM, 24h preincubation with gametocytes prior to induction of gametogenesis
[10] = 2µM, 24h preincubation with gametocytes
[11] = PfDGFA at 2µM, 24h preincubation with gametocytes

| SMILES | Average inhibition male (%) [1, 3] [%] | % inhibition male (individual replicates) R1 [1, 3] [%] | % inhibition male (individual replicates) R3 [1, 3] [%] | % inhibition male (individual replicates) R4 [1, 3] [%] | Average inhibition female (%) [2, 3] [%] | % inhibition female (individual replicates) R1 [2, 3] [%] | % inhibition female (individual replicates) R3 [2, 3] [%] | % inhibition female (individual replicates) R4 [2, 3] [%] | HitlevelM [1, 6] | Activity [1, 7] | HitlevelF [2, 8] | % inhibition male (individual replicates) R1 [1, 9] [%] | % inhibition male (individual replicates) R3 [1, 9] [%] | % inhibition male (individual replicates) R4 [1, 9] [%] | Average inhibition male (%) [1, 7] [%] | % inhibition female (individual replicates) R1 [2, 9] [%] | % inhibition female (individual replicates) R3 [2, 9] [%] | % inhibition female (individual replicates) R4 [2, 9] [%] | Average inhibition female (%) [2, 7] [%] | further results |
| --- | --- | --- | --- | --- | --- | --- | --- | --- | --- | --- | --- | --- | --- | --- | --- | --- | --- | --- | --- | --- |
| CN1CCN(CCCCNc2c3ccccc3nc3ccccc23)CC1 [TCMDC-137479] | 37.9 | 56.6 | -27.6 | 45.6 | 21.2 | 27.6 | -3.0 | 19.8 |  |  |  |  |  |  |  |  |  |  |  | HitlevelM [1, 4]: 2; HitlevelF [2, 5]: 0 |
| CCC(=C(CC)c1ccc(O)c(CNC2CCCCC2)c1)c1ccc(O)c(CNC2CCCCC2)c1.Cl [TCMDC-137481] | 1.2 | -0.3 |  | 0.8 | 5.6 | 2.3 | 13.0 | 6.2 | 0 | 0 | 0 |  |  |  |  |  |  |  |  |  |
| Nc1nc(Cc2ccc(Cl)cc2)nc(Cc2ccc(Cl)cc2)n1 [TCMDC-137497] |  |  |  |  |  |  |  |  |  |  |  | -13.6 | -49.6 | -34.5 | -26.4 | -4.6 | -30.4 | 8.0 | -6.5 |  |
| COc1ccc(O)cc1Cc1cnc2nc(N)nc(N)c2c1C [TCMDC-137498] | -10.8 | 7.6 | -15.7 | -40.5 | 6.7 | 14.0 | 17.6 | 8.3 | 0 | 0 | 0 |  |  |  |  |  |  |  |  |  |
| Clc1ccc(CNCCCCCCNCc2ccc(Cl)cc2)cc1.O=C(O)c1ccc2ccccc2c1O [TCMDC-137500] | 60.2 | 69.1 | 26.6 | 76.2 | 9.2 | 13.6 | -5.3 | 22.1 |  |  |  |  |  |  |  |  |  |  |  | HitlevelM [1, 4]: 3; HitlevelF [2, 5]: 0 |
| CCCN1CCN(CCNc2c3ccccc3nc3ccccc23)CC1 [TCMDC-137549] |  |  |  |  |  |  |  |  |  |  |  |  |  |  |  |  |  |  |  | Average inhibition male (%) [1, 10]: 95.7%; % inhibition male (individual replicates) R1 [1, 10]: 96.4%; % inhibition male (individual replicates) R3 [1, 10]: 92.4%; % inhibition male (individual replicates) R4 [1, 10]: 99.6%; Average inhibition female (%) [2, 10]: 13.4%; % inhibition female (individual replicates) R1 [2, 10]: 14.9%; % inhibition female (individual replicates) R3 [2, 10]: 20.2%; % inhibition female (individual replicates) R4 [2, 10]: 28.7% |
| Br.CCCCCCCNCCNc1cc(C)nc2ccccc12 [TCMDC-137556] | 11.5 | 12.4 | 4.0 | 8.2 | 18.1 | 25.7 | 0.5 | 18.7 |  |  |  |  |  |  |  |  |  |  |  | HitlevelM [1, 4]: 0; HitlevelF [2, 5]: 0 |
| COc1cccc2c(O)c(CNC3CCCCC3)ccc12.Cl [TCMDC-137595] |  |  |  |  |  |  |  |  |  |  |  | -3.5 | 3.4 | 4.2 | 3.3 | -8.7 | -13.9 | -3.5 | -7.6 |  |
| COc1ccc(CNCCCCCCNCc2ccc(OC)c3ccccc23)c2ccccc12.Cl [TCMDC-137631] |  |  |  |  |  |  |  |  |  |  |  |  |  |  |  |  |  |  |  | Average inhibition male (%) [1, 11]: 83.3%; % inhibition male (individual replicates) R1 [1, 11]: 71.0%; % inhibition male (individual replicates) R3 [1, 11]: 73.6%; % inhibition male (individual replicates) R4 [1, 11]: 100.9%; HitlevelM ([1]; number of replicates with >50% inhibition in the male readout, 2µM): 4; Average inhibition female (%) [2, 11]: 47.3%; % inhibition female (individual replicates) R1 [2, 11]: 36.3%; % inhibition female (individual replicates) R3 [2, 11]: 33.7%; % inhibition female (individual replicates) R4 [2, 11]: 34.7%; HitlevelF ([2]; number of replicates with >50% inhibition in the female readout, 2µM): 1 |
| Cc1nc2nc(N)nc(N)c2c(C)c1Cc1cccc(C#N)c1.Cl [TCMDC-137646] |  |  |  |  |  |  |  |  |  |  |  | 10.9 | 34.4 | 21.2 | 19.8 | -3.5 | -14.6 | 5.5 | -8.2 |  |
| Cc1ccc(Cc2c(C)nc3nc(N)nc(N)c3c2C)cc1.Cl [TCMDC-137657] |  |  |  |  |  |  |  |  |  |  |  | 13.2 | 20.3 | 13.4 | 14.9 | -6.6 | 8.8 | -7.7 | -3.5 |  |
| Cc1nc2nc(N)nc(N)c2c(C)c1Cc1ccccc1Cl.Cl [TCMDC-137668] | 0.635 | 24.9 | -5.5 | -27.1 | 9.8 | 18.7 | -14.7 | 32.6 | 0 | 0 | 0 |  |  |  |  |  |  |  |  |  |
| CC(C)N(Cc1cnc2nc(N)nc(N)c2n1)c1ccc(Cl)c(Cl)c1 [TCMDC-137675] |  |  |  |  |  |  |  |  |  |  |  | 8.1 | 1.6 | -34.5 | -1.6 | 8.3 | -2.9 | 6.8 | 1.4 |  |
| COc1ccc(N(C)Cc2cnc3nc(N)nc(N)c3n2)cc1 [TCMDC-137682] |  |  |  |  |  |  |  |  |  |  |  | 16.6 |  | -18.5 | 5.0 | 1.5 | 1.9 | 1.8 | 3.6 |  |
| CCCc1cc(Cc2cnc(N)nc2N)cc(CCC)c1O.Cl [TCMDC-137695] |  |  |  |  |  |  |  |  |  |  |  | 13.3 | -2.6 | -24.5 | -1.8 | -0.04 | -0.32 | -11.2 | -4.4 |  |
| Cc1cc(N2C(N)=NC(N)=NC2(C)C)ccc1Cl.Cl [TCMDC-137705] | -12.7 | 23.4 | -17.5 | -53.8 | 4.4 | 16.7 | -1.9 | -1.7 | 0 | 0 | 0 |  |  |  |  |  |  |  |  |  |
| Cc1ccc(N2C(N)=NC(N)=NC2(C)C)cc1Cl.Cl [TCMDC-137708] | -13.6 | 11.4 | -5.0 | -55.8 | 15.0 | 12.7 | 7.1 | 19.9 | 0 | 0 | 0 |  |  |  |  |  |  |  |  |  |
| CCCCCc1ccc(N2C(N)=NC(N)=NC2(C)C)cc1.Cl [TCMDC-137709] | 2.5 | 18.2 | 6.4 | -27.8 | 8.1 | 15.2 | -7.7 | 22.0 | 0 | 0 | 0 |  |  |  |  |  |  |  |  |  |
